Measurements reported in patent publication US8952024B2, “Herbicidal pyrimidone derivatives” (E I du Pont de Nemours and Company, priority 2009, dated 2015).

Experiments:
[1] = test system: Russian thistle (Salsola kali); experiment: Test B pre-/postemergence plant response; type: in vivo; conditions: Preemergence; for Russian Thistle plant response rating: 250 g ai/ha, 0 to 100 scale
Procedure, shortened: (§1)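 Visual ratings on a 0–100 scale (100 = complete control) were made versus untreated controls 13–15 days after treatment in a greenhouse. Compounds in surfactant-containing non-phytotoxic solvent were applied preemergence to seeds in loam–sand blend or postemergence to 1- to 4-leaf plants (2–18 cm).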

[2] = test system: field violet (Viola arvensis); experiment: Test C plant response; type: in vivo; conditions: Preemergence, scale 0 to 100
[3] = test system: field poppy (Papaver rhoeas); experiment: Test C plant response; type: in vivo; conditions: Preemergence, scale 0 to 100
[4] = test system: chickweed (common chickweed, Stellaria media); experiment: Test C plant response; type: in vivo; conditions: Preemergence, scale 0 to 100
[5] = test system: galium (catchweed bedstraw, Galium aparine); experiment: Test C plant response; type: in vivo; conditions: Preemergence, scale 0 to 100
[6] = test system: pigweed (Amaranthus retroflexus); experiment: Test C plant response; type: in vivo; conditions: Preemergence, scale 0 to 100
[7] = test system: windgrass (Apera spica-venti); experiment: Test C plant response; type: in vivo; conditions: Preemergence, scale 0 to 100
[8] = test system: lambsquarters (Chenopodium album); experiment: Test C plant response; type: in vivo; conditions: Postemergence, scale 0 to 100
Text: (§2) Seeds of plant species selected from bluegrass (annual bluegrass, Poa annua), blackgrass (Alopecurus myosuroides), canarygrass (Phalaris minor), chickweed (common chickweed, Stellaria media), galium (catchweed bedstraw, Galium aparine), bromegrass (downy bromegrass, Bromus tectorum), field poppy (Papaver rhoeas), field violet (Viola arvensis), green foxtail (Setaria viridis), deadnettle (henbit deadnettle, Lamium amplexicaule), Italian ryegrass (Lolium multiflorum), kochia (Kochia scoparia), lambsquarters (Chenopodium album), oilseed rape (Brassica napus), pigweed (Amaranthus retroflexus), Russian thistle (Salsola iberica), spring barley (Hordeum vulgare), spring wheat (Triticum aestivum), buckwheat (wild buckwheat, Polygonum convolvulus), wild mustard (Sinapis arvensis), wild oat (Avena fatua), wild radish (Raphanus raphanistrum), windgrass (Apera spica-venti), winter barley (Hordeum vulgare), and winter wheat (Triticum aestivum) were planted and treated postemergence with test chemicals formulated in a non-phytotoxic solvent mixture which included a surfactant. Plants ranged in height from 2 to 18 cm (1- to 4-leaf stage).
(§3) Treated plants and controls were maintained in a controlled growth environment for 14 days after which time all test plants were visually evaluated and compared to controls. Plant response ratings, summarized in Table C, are based on a scale of 0 to 100 where 0 is no effect and 100 is complete control. A dash (-) response means no test result.

[9] = test system: pigweed (Amaranthus retroflexus); experiment: Test C plant response; type: in vivo; conditions: Postemergence, scale 0 to 100
Text: as §2, §3

[10] = test system: bluegrass (annual bluegrass, Poa annua); experiment: Test C plant response; type: in vivo; conditions: Postemergence, scale 0 to 100
Text: as §2, §3

[11] = test system: field violet (Viola arvensis); experiment: Test C plant response; type: in vivo; conditions: Postemergence, scale 0 to 100
Text: as §2, §3

kochia (Kochia scoparia) = experiment: Test C plant response; type: in vivo; conditions: Postemergence, scale 0 to 100
Text: as §2, §3

[12] = test system: oilseed rape (Brassica napus); experiment: Test C plant response; type: in vivo; conditions: Postemergence, scale 0 to 100
Text: as §2, §3

[13] = test system: windgrass (Apera spica-venti); experiment: Test C plant response; type: in vivo; conditions: Postemergence, scale 0 to 100
Text: as §2, §3

[14] = test system: buckwheat (wild buckwheat, Polygonum convolvulus); experiment: Test C plant response; type: in vivo; conditions: Postemergence, scale 0 to 100
Text: as §2, §3

[15] = test system: deadnettle (henbit deadnettle, Lamium amplexicaule); experiment: Test B pre-/postemergence plant response; type: in vivo; conditions: Postemergence
Procedure, shortened: as §1

[16] = 125 g ai/ha, scale 0 to 100, 0 no effect, 100 complete control
[17] = 31 g ai/ha, scale 0 to 100 (0 no effect, 100 complete control)
[18] = 62 g ai/ha, scale 0 to 100, 0 no effect, 100 complete control
[19] = 31 g ai/ha, 0 to 100 scale (0 no effect, 100 complete control)
[20] = 125 g ai/ha, scale 0 to 100 (0 no effect, 100 complete control)
[21] = 250 g ai/ha, scale 0 to 100 (0 no effect, 100 complete control), 13 to 15 days

CC(C)Cc1ncc(C(=O)C2=C(O)CCCC2=O)c(=O)n1-c1ccccc1 [Compound 68]
Plant response rating, Russian Thistle [1, 16]: 80

Cc1c(F)cccc1-n1c(-c2ccccc2)ncc(C(=O)C2=C(O)CCCC2=O)c1=O [Compound 47, 3-(3-fluoro-2-methylphenyl)-5-[(2-hydroxy-6-oxo-1-cyclohexen-1-yl)carbonyl]-2-phenyl-4(3H)-pyrimidinone]
melting point: 168 to 169 °C

O=C1CCCC(O)=C1C(=O)c1cnc(-c2cccc(Br)c2)n(-c2ccccc2)c1=O [Compound 69]
Plant response rating, Russian Thistle [1, 17]: 100 | Plant response rating, Russian Thistle [1, 18]: 100 | Plant response rating, Russian Thistle [1, 16]: 100

O=C1CCCC(O)=C1C(=O)c1cnc(-c2ccccc2)n(-c2ccccc2)c1=O [Compound 2, 5-[(2-hydroxy-6-oxo-1-cyclohexen-1-yl)carbonyl]-2,3-diphenyl-4(3H)-pyrimidinone]
Plant response rating: Field Violet ([2]; 62 g ai/ha): 0 | Plant response rating: Field Violet ([2]; 125 g ai/ha): 0 | Plant response rating: Field Violet ([2]; 16 g ai/ha): 0 | Plant response rating: Field Violet ([2]; 31 g ai/ha): 0 | Plant response rating: Field Poppy ([3]; 62 g ai/ha): 95 | Plant response rating: Field Poppy ([3]; 125 g ai/ha): 100 | Plant response rating: Field Poppy ([3]; 31 g ai/ha): 75 | Plant response rating: Chickweed ([4]; 62 g ai/ha): 98 | Plant response rating: Chickweed ([4]; 125 g ai/ha): 98 | Plant response rating: Chickweed ([4]; 16 g ai/ha): 75 | Plant response rating: Chickweed ([4]; 31 g ai/ha): 98 | Plant response rating: Galium ([5]; 62 g ai/ha): 0 | Plant response rating: Galium ([5]; 125 g ai/ha): 50 | Plant response rating: Pigweed ([6]; 62 g ai/ha): 65 | Plant response rating: Pigweed ([6]; 125 g ai/ha): 85 | Plant response rating: Pigweed ([6]; 16 g ai/ha): 0 | Plant response rating: Pigweed ([6]; 31 g ai/ha): 20 | Plant response rating: Windgrass ([7]; 62 g ai/ha): 25 | Plant response rating: Windgrass ([7]; 125 g ai/ha): 25 | Plant response rating: Windgrass ([7]; 16 g ai/ha): 0 | Plant response rating: Windgrass ([7]; 31 g ai/ha): 15 | Plant response rating: Lambsquarters ([8]; 16 g ai/ha): 70 | Plant response rating: Lambsquarters ([8]; 31 g ai/ha): 75 | Plant response rating: Lambsquarters ([8]; 62 g ai/ha): 80 | Plant response rating: Lambsquarters ([8]; 125 g ai/ha): 98 | Plant response rating: Pigweed ([9]; 16 g ai/ha): 35 | Plant response rating: Pigweed ([9]; 31 g ai/ha): 40 | Plant response rating: Pigweed ([9]; 62 g ai/ha): 75 | Plant response rating: Pigweed ([9]; 125 g ai/ha): 90 | Plant response rating: Bluegrass ([10]; 16 g ai/ha): 0 | Plant response rating: Bluegrass ([10]; 31 g ai/ha): 25 | Plant response rating: Bluegrass ([10]; 62 g ai/ha): 25 | Plant response rating: Bluegrass ([10]; 125 g ai/ha): 65 | Plant response rating: Field Violet ([11]; 16 g ai/ha): 0 | Plant response rating: Field Violet ([11]; 31 g ai/ha): 40 | Plant response rating: Field Violet ([11]; 62 g ai/ha): 40 | Plant response rating: Field Violet ([11]; 125 g ai/ha): 50 | Plant response rating: Kochia (kochia (Kochia scoparia); 16 g ai/ha): 65 | Plant response rating: Kochia (kochia (Kochia scoparia); 31 g ai/ha): 70 | Plant response rating: Kochia (kochia (Kochia scoparia); 62 g ai/ha): 75 | Plant response rating: Kochia (kochia (Kochia scoparia); 125 g ai/ha): 98 | Plant response rating: Oilseed Rape ([12]; 16 g ai/ha): 60 | Plant response rating: Oilseed Rape ([12]; 31 g ai/ha): 60 | Plant response rating: Oilseed Rape ([12]; 62 g ai/ha): 70 | Plant response rating: Oilseed Rape ([12]; 125 g ai/ha): 90 | Plant response rating: Windgrass ([13]; 16 g ai/ha): 5 | Plant response rating: Windgrass ([13]; 31 g ai/ha): 20 | Plant response rating: Windgrass ([13]; 62 g ai/ha): 25 | Plant response rating: Windgrass ([13]; 125 g ai/ha): 40 | Plant response rating: Buckwheat, Wild ([14]; 16 g ai/ha): 15 | Plant response rating: Buckwheat, Wild ([14]; 31 g ai/ha): 20 | Plant response rating: Buckwheat, Wild ([14]; 62 g ai/ha): 40 | Plant response rating: Buckwheat, Wild ([14]; 125 g ai/ha): 70

COCCCn1c(-c2ccccc2)ncc(C(=O)C2=C(O)CCCC2=O)c1=O [Compound 81, 5-[(2-hydroxy-6-oxo-cyclohexen-1-yl)carbonyl]-3-(3-methoxypropyl)-2-phenyl-4(3H)-pyrimidinone]
melting point: 121 to 122 °C | Plant response rating, Russian Thistle [1, 17]: 100 | Plant response rating, Russian Thistle [1, 18]: 100 | Plant response rating, Russian Thistle [1, 16]: 100 | Russian Thistle plant response rating [1]: 100

O=C1CCCC(O)=C1C(=O)c1cnc(-c2ccsc2)n(C2CCOCC2)c1=O [Compound 186]
Plant response rating, Deadnettle [15, 19]: 90 | Plant response rating, Deadnettle [15, 20]: 100 | Plant response rating, Deadnettle [15, 21]: 100

O=C1CCCC(O)=C1C(=O)c1cnc(-c2cccs2)n(-c2ccccc2)c1=O [Compound 66]
Plant response rating, Russian Thistle [1, 18]: 0

CCCCn1c(C2CC2)ncc(C(=O)C2=C(O)CCCC2=O)c1=O [Compound 193]
Plant response rating, Deadnettle [15, 19]: 100 | Plant response rating, Deadnettle [15, 20]: 100 | Plant response rating, Deadnettle [15, 21]: 100 | Plant response rating, Deadnettle ([15]; 62 g ai/ha, scale 0 to 100 (0 no effect, 100 complete control)): 100 | Plant response rating, Russian Thistle [1, 17]: 90 | Plant response rating, Russian Thistle [1, 18]: 98 | Plant response rating, Russian Thistle [1, 16]: 100 | Russian Thistle plant response rating [1]: 100

CCCc1ncc(C(=O)C2=C(O)CCCC2=O)c(=O)n1CCC [Compound 72]
Plant response rating, Russian Thistle [1, 17]: 0 | Plant response rating, Russian Thistle [1, 18]: 30 | Plant response rating, Russian Thistle [1, 16]: 80
